A word on the IC50: it is the concentration needed to halve the response being measured. Higher therefore signals a need for much substance.

Assay [1] concerns the target T1, GDP-loaded KRAS (1-169) G12C, C51S, C80L, C118S (Homo sapiens, UniProt P01116, C118S/C51S/C80L/G12C).
T1 construct: GDP-loaded KRAS (1-169) G12C, C51S, C80L, C118S
Nature of the assay: Mass Spectrometry Reactivity Assay (MSRA): covalent adduct of compound and KRAS G12C, Percent Modification. The settings on record: for MSRA (% modification) 10 μM 0.25 hr / MSRA (% modification) 10 μM 0.50 hr: 10 μM compound; for MSRA (% modification) 5.0 μM 0.25 hr / MSRA (% modification) 5.0 μM 0.017 hr: 5.0 μM compound. The assay is classed as binding. Summed up: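 Covalent labelling is measured by intact mass: deconvoluted modified and unmodified peak intensities yield percent modification. Compound, usually 5 μM or 10 μM final, reacts at room temperature with 5 μM GDP-bound KRAS G12C (1-169, C51S/C80L/C118S) in Hepes pH 7.5/NaCl/glycerol, sampled at 1, 15, 30, 60 min.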

Assay [2] deals with T2, KRAS G12C (Homo sapiens, UniProt P01116, G12C). Nature of the assay: Cell Activity Assay: IC50 in H358 cells. The assay is classed as cell-based. Also on record: endogenous in cells. The method, then:
Compounds presented in the present invention lead to the accumulation of the GDP bound Ras upon treatment of human cancer cell line.
The accumulation of the GDP-bound KRAS G12C in cellular environment was measured based on the principle that KRAS G12C only binds to its downstream kinase; Raf-1 (MAP Kinase Kinase Kinase), when in its active-GTP bound state. In this state, Ras binded to a domain of Raf-1 kinase referred to as the Ras Binding Domain (RBD).
Raf-1 RBD (LJIC-1988A1) was diluted to 100 ng/well in PBS and 5 μl/well was spot coated onto MSD high bind SECTOR plates (L15XB). Plates were incubated at room temperature for 1 hour on an orbital shaker. Plates were washed with PBS/0.05% Tween-20 and 50 μl/well of thawed lysate samples were added, followed by 50 μl of 1% MSD Blocker A in PBS/0.05 Tween-20 (R93BA). Plates were incubated for 1 hour on an orbital shaker and washed with PBS/0.05% Tween-20. 25 μl/well of Anti-pan-Ras Antibody (Cell Biolabs 244003) diluted 1:3000 was added in 1% MSD Blocker A solution and plates were incubated for 1 hour on an orbital shaker and washed with PBS/0.05% Tween-20. SULFO-TAG goat anti-mouse secondary antibody (MSD R32AC) was diluted 1:500 in MSD Blocker A solution and added at 25 μL/well. Plates were incubated for 1 hour on an orbital shaker and washed with PBS/0.05% Tween-20. 150 μl/well of Read Buffer T (MSD R92TC) diluted 1:3 in H2O was added and plates were read on a Meso Scale Discovery Sector Imager S600.
KRAS signal was normalized to maximum inhibition and DMSO control values, and IC50 values were generated using a 4 parameter fit of the dose response curve. The decrease in IC50 reflects that the exemplary compound lead to a higher level of accumulation of GDP-bound KRAS G12C than another exemplary compounds at specific timepoint of treatment of cancer cell line.

The target in assay [3] is T2, KRAS G12C. Nature of the assay: Cell Activity Assay: accumulation of GDP-bound KRAS G12C in MIAPaCa-2 cells (Raf-1 RBD capture, MSD readout). The following applies: 6 hours, assay limit is 30.00. The assay is classed as cell-based. Also on record: endogenous in cells; host or cells: MIAPaCa-2. In a few lines:
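IC50 came from a 4-parameter fit of Ras signal normalized between DMSO and full-inhibition controls. Readout: lysate GTP-Ras bound to immobilized Raf-1 RBD, quantified with pan-Ras antibody and MSD electrochemiluminescence. Lysates derived from MIAPaCa-2 cells treated 6 h with serially diluted compound, 0.3% DMSO.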

For the compound `C=CC(=O)N1CCN(c2nc(OC[C@@H]3CN(C)C[C@H]3OC)nc3c(Oc4c(Cl)c(F)cc5[nH]ncc45)nc(Cl)cc23)CC1` [Example 19G, 1-[4-(6-chloro-8-[(5-chloro-6-fluoro-1H-indazol-4-yl)oxy]-2-{[(3S,4S)-4-methoxy-1-methylpyrrolidin-3-yl]methoxy}pyrido[3,4-d]pyrimidin-4-yl)piperazin-1-yl]prop-2-en-1-one], the “MSRA (% modification) 10 μM 0.25 hr” value in assay [1] came out at 60%. Further, the 50% inhibitory concentration (IC50) amounted to 0.109 µM against KRAS G12C [2] and 0.051 µM against KRAS G12C [3].
On to `C=CC(=O)N1CCN(c2nc(OC[C@@H]3CCCN3C)nc3c(Oc4c(Cl)c(F)cc5[nH]ncc45)nccc23)CC1` [Example 01H, 1-[4-(8-[(5-chloro-6-fluoro-1H-indazol-4-yl)oxy]-2-{[(2S)-1-methylpyrrolidin-2-yl]methoxy}pyrido[3,4-d]pyrimidin-4-yl)piperazin-1-yl]prop-2-en-1-one], for which the “MSRA (% modification) 5.0 μM 0.25 hr” value in assay [1] was 66%. The “MSRA (% modification) 10 μM 0.25 hr” value in assay [1] is 81%. Besides, the values for the IC50 at KRAS G12C [2] and on KRAS G12C [3] were 0.191 µM and 0.117 µM, respectively.
`C=CC(=O)N1CCN(c2nc(OC[C@H]3CN(C)C[C@@H]3OC)nc3c(Oc4c(Cl)c(F)cc5[nH]ncc45)nc(Cl)cc23)CC1` [Example 18G, 1-[4-(6-chloro-8-[(5-chloro-6-fluoro-1H-indazol-4-yl)oxy]-2-{[(3R,4R)-4-methoxy-1-methylpyrrolidin-3-yl]methoxy}pyrido[3,4-d]pyrimidin-4-yl)piperazin-1-yl]prop-2-en-1-one]: in assay [1], the “MSRA (% modification) 5.0 μM 0.017 hr” value stood at 43%, the “MSRA (% modification) 5.0 μM 0.25 hr” value is given as 88%, the “MSRA (% modification) 10 μM 0.25 hr” value stood at 81% and the “MSRA (% modification) 10 μM 0.50 hr” value was 84%. Moreover, the IC50 on KRAS G12C [2] was determined as 0.087 µM. This compound also displayed an IC50 against KRAS G12C [3] of 0.034 µM.
For the compound `C=CC(=O)N1CCN(c2nc(OC[C@@H]3CCCN3C)nc3c(Oc4c(C)ccc5[nH]ncc45)cccc23)CC1` [Example 07E, 1-[4-(8-[(5-methyl-1H-indazol-4-yl)oxy]-2-{[(2S)-1-methylpyrrolidin-2-yl]methoxy}quinazolin-4-yl)piperazin-1-yl]prop-2-en-1-one], in assay [1], the “MSRA (% modification) 5.0 μM 0.25 hr” value is 67%, the “MSRA (% modification) 10 μM 0.25 hr” value stood at 79% and the “MSRA (% modification) 10 μM 0.50 hr” value was 82%. This compound also returned an IC50 against KRAS G12C [2] of 0.501 µM. On KRAS G12C [3], the IC50 came out at 0.23 µM.
Regarding `C=CC(=O)N1CCN(c2nc(OCC3CCCO3)nc3c(Oc4c(Cl)c(F)cc5[nH]ncc45)nc(Cl)cc23)CC1` (centres unmarked) [Example 11G, 1-(4-{6-chloro-8-[(5-chloro-6-fluoro-1H-indazol-4-yl)oxy]-2-(tetrahydrofuran-2-ylmethoxy)pyrido[3,4-d]pyrimidin-4-yl}piperazin-1-yl)prop-2-en-1-one], the “MSRA (% modification) 10 μM 0.25 hr” value in assay [1] turned out to be 77%. Further, the IC50 against KRAS G12C [2] is 0.448 µM; against KRAS G12C [3] it was 0.102 µM.
`C=CC(=O)N1CCN(c2nc(OC[C@@H]3CCCN3C)nc3c(Oc4c(Cl)ccc5[nH]ncc45)nc(Cl)cc23)CC1` [Example 09G, 1-[4-(6-chloro-8-[(5-chloro-1H-indazol-4-yl)oxy]-2-{[(2S)-1-methylpyrrolidin-2-yl]methoxy}pyrido[3,4-d]pyrimidin-4-yl)piperazin-1-yl]prop-2-en-1-one]: the “MSRA (% modification) 10 μM 0.25 hr” value in assay [1] was found to be 81%. Besides, the values for the IC50 on KRAS G12C [2] and against KRAS G12C [3] were 0.123 µM and 0.069 µM, respectively.
For `C=CC(=O)N1CCN(c2nc(N3CC(N(C)C)C3)nc3c(Oc4c(C)ccc5[nH]ncc45)nccc23)CC1` [Example 02B, 1-(4-{2-[3-(dimethylamino)azetidin-1-yl]-8-[(5-methyl-1H-indazol-4-yl)oxy]pyrido[3,4-d]pyrimidin-4-yl}piperazin-1-yl)prop-2-en-1-one], the “MSRA (% modification) 10 μM 0.50 hr” value in assay [1] is on record as 30%. Besides, the IC50 at KRAS G12C [2] stood at 8.2 µM; on KRAS G12C [3] it was 7.84 µM.
On to `C=CC(=O)N1CCN(c2nc(OC[C@@H]3CCCN3C)nc3c(Oc4c(Cl)c(F)cc5[nH]ncc45)nc(Cl)cc23)CC1` [Example 01G, 1-[4-(6-chloro-8-[(5-chloro-6-fluoro-1H-indazol-4-yl)oxy]-2-{[(2S)-1-methylpyrrolidin-2-yl]methoxy}pyrido[3,4-d]pyrimidin-4-yl)piperazin-1-yl]prop-2-en-1-one], for which, in assay [1], the “MSRA (% modification) 10 μM 0.25 hr” value is 82%. The IC50 turned out to be 0.06 µM at KRAS G12C [2] and 0.04 µM on KRAS G12C [3].
Regarding `C=CC(=O)N1CCN(c2nc(OC[C@@H]3C[C@H](OC)CN3C)nc3c(Oc4c(Cl)c(F)cc5[nH]ncc45)nc(Cl)cc23)CC1` [Example 20G, 1-[4-(6-chloro-8-[(5-chloro-6-fluoro-1H-indazol-4-yl)oxy]-2-{[(2S,4S)-4-methoxy-1-methylpyrrolidin-2-yl]methoxy}pyrido[3,4-d]pyrimidin-4-yl)piperazin-1-yl]prop-2-en-1-one], the “MSRA (% modification) 5.0 μM 0.017 hr” value in assay [1] is on record as 26%. Besides, the “MSRA (% modification) 10 μM 0.25 hr” value in assay [1] was 79%. Also, the IC50 was found to be 0.152 µM at KRAS G12C [2] and 0.08 µM against KRAS G12C [3].
As to `C=CC(=O)N1CCN(c2ncnc3c(Oc4c(Cl)c(C)cc5[nH]ncc45)nccc23)CC1` [Example 11A, 1-(4-{8-[(5-chloro-6-methyl-1H-indazol-4-yl)oxy]pyrido[3,4-d]pyrimidin-4-yl}piperazin-1-yl)prop-2-en-1-one], in assay [1], the “MSRA (% modification) 10 μM 0.25 hr” value amounted to 44% and the “MSRA (% modification) 10 μM 0.50 hr” value is recorded as 68%. Besides, on KRAS G12C [2], the IC50 came to 2.56 µM. The compound also yielded a half-maximal inhibitory concentration (IC50) against KRAS G12C [3] of 0.892 µM.

The values are drawn from patent publication US10662204B2 (PFIZER INC., priority 2018, dated 2020).
